# Like-named read-outs stand apart in the source and are kept apart here.
# Target: T1, human P450 11A1 (Homo sapiens, UniProt P05108)
# T1 construct: M A S T R S P R P F N E I P S P G D N; Met-Ala (N-terminal start residues in place of the transit peptide and Ile40) (N); made in house; host or cells: E. coli C41(DE3) with GroES/GroEL, vector pET23C(+)
# T1 sequence (P05108 41-521 limits assumed): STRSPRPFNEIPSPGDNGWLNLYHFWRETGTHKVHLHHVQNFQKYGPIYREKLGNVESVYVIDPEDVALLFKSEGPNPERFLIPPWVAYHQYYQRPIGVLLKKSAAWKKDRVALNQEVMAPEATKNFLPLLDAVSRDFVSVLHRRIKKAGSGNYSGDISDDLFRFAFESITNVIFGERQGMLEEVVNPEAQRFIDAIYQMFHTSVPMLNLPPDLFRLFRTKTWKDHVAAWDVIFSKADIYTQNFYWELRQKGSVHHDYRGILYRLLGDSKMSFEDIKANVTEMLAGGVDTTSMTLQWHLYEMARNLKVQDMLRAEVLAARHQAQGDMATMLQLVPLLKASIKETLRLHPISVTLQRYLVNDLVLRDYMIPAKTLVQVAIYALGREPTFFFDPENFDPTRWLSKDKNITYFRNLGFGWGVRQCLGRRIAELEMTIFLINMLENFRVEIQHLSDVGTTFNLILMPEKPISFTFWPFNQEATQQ
# Experiment: Steady-state spectral (type I) binding titration, Kd determination
# Experimental: Ligand binding constants were determined from the low-to high-spin (hypsochromic) spectral transition that occurs at the P450 heme as substrate entering the active site replaces water as the sixth axial heme ligand. […] As a result, we subsequently measured koff values of the P450-sterol complexes, which were consistent with the low Kd values observed (see below). Binding titrations were repeated in the presence of Adx (1 M equivalent, Fig. 6), although no significant effect was observed, even when Adx was added in excess (10-fold with cholesterol as the substrate, data not shown).
# Spectra were recorded using either an OLIS-Cary 14 or OLIS-Aminco DW2a instrument (On-Line Instrument Systems) in the split-beam mode. The OLIS-Cary 14 instrument was used in the P450 11A1 titrations with a 10-cm cell (Starna Cells, catalog no. 34-Q-100, volume 25 ml).
# Kd values were determined by difference spectroscopy as previously reported ([33], [43]) but with some modifications. Briefly, a long-path quartz cuvette (10 cm, 25 ml) containing P450 11A1 (0.1 μM, in 100 mM potassium phosphate buffer (pH 7.4)) was prepared and a baseline was recorded in an OLIS-Cary 14 spectrophotometer. Where indicated, the redox partner Adx was added in equimolar concentration (0.1 μM) to P450. Sterol solutions (in 45% HPCD, w/v) were added to the cuvette, the contents of the cuvette were inverted to mix, and a spectrum was recorded (350–500 nm) after each addition. The total volume added to each cuvette was kept ≤2% (v/v, 0.25 ml) in the assay. The maximum absorbance difference (usually ΔA390−A418) was plotted against the total sterol concentration, and the data were fit to a quadratic equation in GraphPad Prism software (GraphPad, https://www.graphpad.com) to estimate the dissociation constant (Kd). A quadratic equation was used to correct the ligand concentration for the enzyme-bound concentration (used as Y=B+A/2∗1/E∗((Kd+E+X)−(Kd+E+X)^2−(4∗E∗X)) (or Y = B + (A/2)∗(1/E)∗((Kd + E + X)-sqrt((Kd + E + X)∧2 -(4∗E∗X)) in Prism software), where E = enzyme concentration, Kd = dissociation constant, and X = […]).
# [1] = 0.10 μM P450 11A1, 10 cm cuvette, with 0.10 μM Adx, quadratic fit, read-out: Kd, (+) Adx
# [2] = 0.10 μM P450 11A1, 10 cm cuvette, without Adx, quadratic fit, read-out: Kd, (−) Adx
Compound,Kd [1],Kd [2],"Kd (Kd, 100 nM P450 11A1, 10-cm cell, quadratic fitting)","Kd (Kd, (+) Adx, 0.10 μM P450 11A1, 10 cm cuvette, with 0.10 μM Adx, quadratic fit)","Kd (Kd, (−) Adx, 0.10 μM P450 11A1, 10 cm cuvette, without Adx, quadratic fit)"
"CC(C)CC[C@@H](O)[C@](C)(O)[C@H]1CC[C@H]2[C@@H]3CC=C4C[C@@H](O)CC[C@]4(C)[C@H]3CC[C@]12C [20R,22R-(OH)2 Chol, (20R,22R)-Cholest-5-ene-3β,20,22-triol]",40 ± 10 nM,30 ± 20 nM,–,–,–
"CC(C)CC[C@H](O)[C@](C)(O)[C@H]1CC[C@H]2[C@@H]3CC=C4C[C@@H](O)CC[C@]4(C)[C@H]3CC[C@]12C [20R,22S-(OH)2 Chol, (20R,22S)-Cholest-5-ene 3β,20,22-triol]",90 ± 20 nM,120 ± 30 nM,–,–,–
"CC(C)CC[C@@H](O)[C@@H](C)[C@H]1CC[C@H]2[C@@H]3CC=C4C[C@@H](O)CC[C@]4(C)[C@H]3CC[C@]12C [22R-OH Chol, 22R-hydroxycholesterol]",–,–,~20 nM,20 ± 3 nM,20 ± 10 nM
CC(C)CCC[C@@H](C)[C@H]1CC[C@H]2[C@@H]3CC=C4C[C@@H](O)CC[C@]4(C)[C@H]3CC[C@]12C [Cholesterol],110 ± 10 nM,120 ± 10 nM,–,–,–
CC(=O)[C@H]1CC[C@H]2[C@@H]3CC=C4C[C@@H](O)CC[C@]4(C)[C@H]3CC[C@]12C [Pregnenolone],560 ± 120 nM,480 ± 220 nM,–,–,–
